In assay [1] the target is T1, Mucolipin-3 (Homo sapiens, UniProt Q8TDD5).
T1 sequence (Q8TDD5 whole entry): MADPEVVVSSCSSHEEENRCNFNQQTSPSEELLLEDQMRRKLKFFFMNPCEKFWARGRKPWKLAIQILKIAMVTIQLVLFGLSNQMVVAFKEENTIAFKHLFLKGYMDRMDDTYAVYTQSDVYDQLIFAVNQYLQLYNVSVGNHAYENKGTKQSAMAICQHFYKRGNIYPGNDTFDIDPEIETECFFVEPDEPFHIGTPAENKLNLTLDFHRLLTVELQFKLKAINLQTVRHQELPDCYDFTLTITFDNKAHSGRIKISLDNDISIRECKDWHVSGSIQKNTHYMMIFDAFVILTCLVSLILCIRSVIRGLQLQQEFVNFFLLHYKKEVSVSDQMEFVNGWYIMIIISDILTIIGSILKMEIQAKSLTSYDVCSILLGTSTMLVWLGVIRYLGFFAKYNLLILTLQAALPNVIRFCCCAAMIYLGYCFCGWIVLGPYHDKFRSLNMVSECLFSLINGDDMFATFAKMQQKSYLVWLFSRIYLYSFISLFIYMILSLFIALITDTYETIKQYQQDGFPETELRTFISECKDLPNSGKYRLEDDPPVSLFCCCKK
The assay can be described thus: Dose response cell-based high-throughput screening assay for agonists of the transient receptor potential channel ML3 (TRPML3). [Related pubchem assays: 1526, 1424, 1448 ]. Type of assay: functional.

Assay [2] concerns the target Ion channel NompC (Danio rerio, UniProt Q7T1G6). Description: Fluorescence counterscreen assay for TRPML3 agonists: dose response cell-based high-throughput screening assay to identify agonists of the transient receptor potential channel N1 (TRPN1). [Related pubchem assays: 1526, 1424, 1448 ]. In kind it is functional.
Assay [3] concerns the target T2, Short transient receptor potential channel 4 (Mus musculus, UniProt Q9QUQ5).
T2 sequence (Q9QUQ5 whole entry): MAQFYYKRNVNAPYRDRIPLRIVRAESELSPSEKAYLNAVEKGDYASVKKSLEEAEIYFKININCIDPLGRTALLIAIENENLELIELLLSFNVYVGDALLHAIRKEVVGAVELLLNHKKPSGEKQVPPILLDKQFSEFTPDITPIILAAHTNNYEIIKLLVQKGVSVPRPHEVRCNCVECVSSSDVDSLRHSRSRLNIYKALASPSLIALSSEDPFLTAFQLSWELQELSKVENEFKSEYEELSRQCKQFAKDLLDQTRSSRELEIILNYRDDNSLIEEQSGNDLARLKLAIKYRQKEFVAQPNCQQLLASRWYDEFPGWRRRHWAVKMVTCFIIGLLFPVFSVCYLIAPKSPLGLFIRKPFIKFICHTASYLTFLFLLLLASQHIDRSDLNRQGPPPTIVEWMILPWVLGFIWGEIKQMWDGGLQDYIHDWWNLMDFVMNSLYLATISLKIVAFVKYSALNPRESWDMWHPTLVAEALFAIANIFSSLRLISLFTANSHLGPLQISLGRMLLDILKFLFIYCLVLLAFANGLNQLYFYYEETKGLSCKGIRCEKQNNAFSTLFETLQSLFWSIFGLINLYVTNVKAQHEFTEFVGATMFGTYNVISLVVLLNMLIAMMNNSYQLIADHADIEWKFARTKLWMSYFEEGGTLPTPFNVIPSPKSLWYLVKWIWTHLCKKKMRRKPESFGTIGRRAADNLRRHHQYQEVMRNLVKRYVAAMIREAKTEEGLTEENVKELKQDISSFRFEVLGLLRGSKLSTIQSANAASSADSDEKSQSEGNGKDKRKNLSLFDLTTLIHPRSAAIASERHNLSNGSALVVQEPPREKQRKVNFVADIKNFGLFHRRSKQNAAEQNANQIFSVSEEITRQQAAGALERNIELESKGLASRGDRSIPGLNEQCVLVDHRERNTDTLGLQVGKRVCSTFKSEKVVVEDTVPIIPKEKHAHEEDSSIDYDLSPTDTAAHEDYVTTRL
Description: mouse TRPC4 channel activators, dose response, cell-based, HEK293 TRPC4/mu-opioid, Fluo-4 calcium (AID 434937). Type of assay: functional.

Assay [4] concerns the target Induced myeloid leukemia cell differentiation protein Mcl-1 (Homo sapiens, UniProt Q07820). Type of assay: functional.
The target of assay [5] is Eukaryotic translation initiation factor 4E (Mus musculus, UniProt P63073). Description: eIF4E–eIF4G protein interaction inhibitors, dose response, biochemical, TR-FRET (AID 855).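 Note: potency for disrupting eIF4E binding to eIF4GI seen as loss of FRET.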 Type of assay: functional.
In assay [6] the target is T3, Carboxy-terminal domain RNA polymerase II polypeptide A small phosphatase 1 (Homo sapiens, UniProt Q9GZU7).
T3 sequence (Q9GZU7 whole entry): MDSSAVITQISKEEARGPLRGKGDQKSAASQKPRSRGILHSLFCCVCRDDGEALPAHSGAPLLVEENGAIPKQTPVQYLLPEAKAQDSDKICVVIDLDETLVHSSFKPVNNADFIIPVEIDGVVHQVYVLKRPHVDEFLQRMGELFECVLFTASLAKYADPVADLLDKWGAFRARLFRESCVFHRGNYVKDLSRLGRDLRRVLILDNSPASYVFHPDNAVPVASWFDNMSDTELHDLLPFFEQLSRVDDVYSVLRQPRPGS
Description: inhibitors of CTDSP1, concentration-response testing, biochemical assay, absorbance-based, actives from ultra-high-throughput screening (AID 540297). In kind it is functional.

For assay [7], the target named is T4, Caspase-6 (Homo sapiens, UniProt P55212).
T4 sequence (P55212 whole entry): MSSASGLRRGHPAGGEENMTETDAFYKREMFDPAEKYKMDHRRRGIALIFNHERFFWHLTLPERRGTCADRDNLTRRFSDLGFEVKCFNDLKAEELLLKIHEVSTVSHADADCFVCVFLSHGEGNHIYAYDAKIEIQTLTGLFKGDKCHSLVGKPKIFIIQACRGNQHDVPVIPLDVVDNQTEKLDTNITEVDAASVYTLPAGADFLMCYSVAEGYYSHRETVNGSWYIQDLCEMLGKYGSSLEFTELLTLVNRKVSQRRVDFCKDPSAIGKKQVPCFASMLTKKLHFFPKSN
The assay can be described thus: human caspase-6 inhibitors, dose response, biochemical, VEID-R110 fluorescence, cherry-pick (AID 720632).

Assay [8] deals with DNA dC->dU-editing enzyme APOBEC-3G (Homo sapiens, UniProt Q9HC16). Description: Dose Response confirmation of small molecule APOBEC3G DNA Deaminase Inhibitors via a fluorescence-based single-stranded DNA deaminase assay. [Related pubchem assays (depositor defined):AID493012, AID493028]. In kind it is functional.
The target of assay [9] is FAD-linked sulfhydryl oxidase ALR (Homo sapiens, UniProt P55789). Description: inhibitors of human ALR sulfhydryl oxidase, dose response, biochemical, H2O2 detection, luminescence, cherry-pick (AID 493248).
Assay [10] is described as follows: A cytotoxicity screen of small molecule inhibitors of the PhoP region in Salmonella typhi identified in the primary screen. [Related pubchem assays: 1850, 1864, 1985 ]. In kind it is functional.
The nature of assay [11]: cytotoxicity in HEK-293T cells, dose response, cytotoxicity control for BCR NF-kB inhibitor project, luminescence, B-cell screen hits (AID 489021).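 Note: HEK-293T cells carrying an NF-kB luciferase reporter; cells exposed to compound for about 14 hours before viability readout.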 Type of assay: functional, cell-based.
In assay [12] the target is T5, Heat shock factor protein 1 (Mus musculus, UniProt P38532).
T5 sequence (P38532 whole entry): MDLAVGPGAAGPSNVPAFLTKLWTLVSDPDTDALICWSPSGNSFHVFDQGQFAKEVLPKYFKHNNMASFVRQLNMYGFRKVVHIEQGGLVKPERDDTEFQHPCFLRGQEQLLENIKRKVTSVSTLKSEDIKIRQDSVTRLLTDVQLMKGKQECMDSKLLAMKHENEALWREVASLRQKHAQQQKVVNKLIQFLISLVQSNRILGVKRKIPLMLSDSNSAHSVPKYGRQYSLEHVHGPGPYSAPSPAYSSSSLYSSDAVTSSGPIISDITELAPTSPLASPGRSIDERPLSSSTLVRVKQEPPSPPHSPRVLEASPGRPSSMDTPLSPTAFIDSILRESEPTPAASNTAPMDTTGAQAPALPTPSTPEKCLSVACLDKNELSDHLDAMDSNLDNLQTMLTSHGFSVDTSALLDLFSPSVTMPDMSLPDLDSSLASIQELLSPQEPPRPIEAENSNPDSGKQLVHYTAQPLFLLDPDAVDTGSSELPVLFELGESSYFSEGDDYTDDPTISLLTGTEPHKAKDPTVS
The assay can be described thus: inhibition of MG132-induced HSE-luciferase signal, confirmation, cell-based, NIH3T3, luminescence, dose retest (AID 2382).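 Note: NIH3T3 fibroblasts with HSF1-driven luciferase reporter stressed by proteasome inhibitor MG132; luminescence from HSF1-driven luciferase expression after 8 hours of MG132 stress.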 Type of assay: functional.

Assay [13] has as its system Streptococcus sp. 'group A'. Description: growth inhibition of control SK(-) GAS strain, dose response, counter-screen for streptokinase expression inhibitor project, luminescence, kanamycin, BacTiterGlo, confirmation (AID 1900). In kind it is functional, organism-based.
In assay [14] the target is T6, Streptokinase A (Streptococcus pyogenes serotype M1, UniProt P10520).
T6 sequence (P10520 whole entry): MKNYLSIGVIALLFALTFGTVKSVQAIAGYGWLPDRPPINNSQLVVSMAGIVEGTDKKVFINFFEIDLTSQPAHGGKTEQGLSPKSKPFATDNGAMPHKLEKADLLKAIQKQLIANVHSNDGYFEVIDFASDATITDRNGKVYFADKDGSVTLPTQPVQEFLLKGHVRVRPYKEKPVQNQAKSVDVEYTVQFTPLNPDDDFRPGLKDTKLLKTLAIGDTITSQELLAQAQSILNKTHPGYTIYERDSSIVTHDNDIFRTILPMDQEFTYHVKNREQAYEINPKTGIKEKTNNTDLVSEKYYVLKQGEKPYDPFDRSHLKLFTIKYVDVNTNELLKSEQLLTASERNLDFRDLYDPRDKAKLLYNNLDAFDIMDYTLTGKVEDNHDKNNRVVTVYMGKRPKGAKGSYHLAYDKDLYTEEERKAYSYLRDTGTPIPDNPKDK
The assay can be described thus: S. pyogenes streptokinase expression inhibitors, potency, dose response, plasminogen activation absorbance, OD405 (AID 1914).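 Note: secreted streptokinase activity via plasminogen activation per viability signal from cell pellet.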 Type of assay: functional, Streptococcus pyogenes M1 GAS.

The test system of assay [15] is Streptococcus. Description: Group A Streptococcus viability loss, dose response, counter-screen for streptokinase expression inhibitor project, luminescence, BacTiterGlo (AID 1915).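 Note: potency for reduction of bacterial viability or growth.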 Type of assay: functional, organism-based.
Assay [16] concerns the target Cytochrome P450 2D6 (Homo sapiens, UniProt P10635).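 Note: CYP2D6 member of a cytochrome P450 panel assay.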
In assay [17] the target is Large T antigen (Simian virus 40, UniProt P03070). In kind it is functional, Betapolyomavirus macacae.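 Note: Confirmatory-stage PubChem screen for compounds that inhibit SV40 T antigen.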
Assay [18] can be described thus: Luminescence Cell-Based Dose Retest to Confirm Inhibitors of Cancer Stem Cells. [Related pubchem assays (depositor defined):AID2717, AID2721]. Type of assay: functional. The following applies: Homo sapiens.

Structures can show the parent of a compound that is named as a salt. Active and inactive are the calls of the source.

Chain of Eukaryotic translation initiation factor 4E (P63073 whole entry, the tested form may be a part): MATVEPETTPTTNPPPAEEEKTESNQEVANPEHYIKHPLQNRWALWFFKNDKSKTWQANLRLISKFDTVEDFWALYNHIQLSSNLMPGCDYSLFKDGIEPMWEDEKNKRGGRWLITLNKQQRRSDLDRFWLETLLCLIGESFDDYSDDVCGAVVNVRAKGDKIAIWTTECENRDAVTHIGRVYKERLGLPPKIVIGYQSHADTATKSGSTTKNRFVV
Chain of DNA dC->dU-editing enzyme APOBEC-3G (Q9HC16 whole entry): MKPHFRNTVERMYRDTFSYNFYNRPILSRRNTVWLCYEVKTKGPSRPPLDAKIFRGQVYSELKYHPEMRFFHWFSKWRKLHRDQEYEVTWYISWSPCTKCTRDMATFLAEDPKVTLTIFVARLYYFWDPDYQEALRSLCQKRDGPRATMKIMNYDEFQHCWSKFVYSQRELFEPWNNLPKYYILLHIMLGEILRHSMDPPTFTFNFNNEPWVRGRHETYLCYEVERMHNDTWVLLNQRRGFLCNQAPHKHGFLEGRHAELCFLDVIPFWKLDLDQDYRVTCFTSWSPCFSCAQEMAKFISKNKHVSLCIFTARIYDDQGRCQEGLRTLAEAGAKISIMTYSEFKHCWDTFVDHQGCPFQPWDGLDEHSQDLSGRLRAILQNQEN
Chain of FAD-linked sulfhydryl oxidase ALR (P55789 whole entry): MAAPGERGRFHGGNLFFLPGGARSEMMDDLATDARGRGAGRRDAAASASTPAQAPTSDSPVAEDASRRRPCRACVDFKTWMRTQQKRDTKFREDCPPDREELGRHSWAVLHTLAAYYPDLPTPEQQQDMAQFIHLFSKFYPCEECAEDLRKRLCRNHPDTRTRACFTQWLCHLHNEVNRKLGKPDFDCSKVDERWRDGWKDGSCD
Chain of Ion channel NompC (Q7T1G6 whole entry): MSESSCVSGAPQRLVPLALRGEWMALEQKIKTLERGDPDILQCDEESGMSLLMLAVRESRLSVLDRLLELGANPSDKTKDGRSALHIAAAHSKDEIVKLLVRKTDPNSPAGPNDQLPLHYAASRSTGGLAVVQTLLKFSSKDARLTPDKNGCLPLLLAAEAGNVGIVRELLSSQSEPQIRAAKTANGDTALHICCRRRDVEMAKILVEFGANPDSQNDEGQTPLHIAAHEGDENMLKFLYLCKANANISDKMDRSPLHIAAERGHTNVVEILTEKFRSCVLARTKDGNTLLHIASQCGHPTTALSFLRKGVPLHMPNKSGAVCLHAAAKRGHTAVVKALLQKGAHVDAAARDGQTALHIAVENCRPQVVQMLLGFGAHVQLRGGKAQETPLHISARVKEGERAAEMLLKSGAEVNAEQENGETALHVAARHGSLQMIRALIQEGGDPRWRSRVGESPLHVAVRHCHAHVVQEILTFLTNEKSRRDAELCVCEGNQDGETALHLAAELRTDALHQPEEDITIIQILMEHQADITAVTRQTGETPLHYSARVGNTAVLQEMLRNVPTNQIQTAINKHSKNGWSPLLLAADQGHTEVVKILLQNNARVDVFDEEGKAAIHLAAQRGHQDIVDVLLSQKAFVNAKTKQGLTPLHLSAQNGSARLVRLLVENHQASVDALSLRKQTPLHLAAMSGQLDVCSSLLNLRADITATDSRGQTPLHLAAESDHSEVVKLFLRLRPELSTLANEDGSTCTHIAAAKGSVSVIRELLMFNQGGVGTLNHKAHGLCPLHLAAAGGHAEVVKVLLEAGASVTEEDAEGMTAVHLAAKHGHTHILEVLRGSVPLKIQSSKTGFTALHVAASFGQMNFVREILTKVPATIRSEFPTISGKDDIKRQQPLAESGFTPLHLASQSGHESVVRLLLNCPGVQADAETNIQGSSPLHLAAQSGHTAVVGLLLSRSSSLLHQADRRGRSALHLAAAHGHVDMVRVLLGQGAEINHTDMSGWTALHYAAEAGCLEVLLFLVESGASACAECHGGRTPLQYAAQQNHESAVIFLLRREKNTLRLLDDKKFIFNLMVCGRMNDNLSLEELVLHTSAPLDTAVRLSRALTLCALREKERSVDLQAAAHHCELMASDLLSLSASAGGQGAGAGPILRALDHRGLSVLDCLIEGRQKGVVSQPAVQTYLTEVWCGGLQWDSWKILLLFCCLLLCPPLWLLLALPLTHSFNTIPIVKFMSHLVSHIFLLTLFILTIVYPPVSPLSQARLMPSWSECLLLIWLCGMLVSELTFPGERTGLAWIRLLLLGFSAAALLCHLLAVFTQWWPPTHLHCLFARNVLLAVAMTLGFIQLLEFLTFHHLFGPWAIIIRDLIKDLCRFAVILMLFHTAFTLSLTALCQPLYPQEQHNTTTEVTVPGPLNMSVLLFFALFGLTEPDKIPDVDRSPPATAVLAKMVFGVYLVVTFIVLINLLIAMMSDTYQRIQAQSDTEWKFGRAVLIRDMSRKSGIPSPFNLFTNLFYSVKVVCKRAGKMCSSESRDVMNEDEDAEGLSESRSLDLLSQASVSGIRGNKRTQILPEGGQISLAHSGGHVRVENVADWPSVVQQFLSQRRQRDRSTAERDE
Chain of Induced myeloid leukemia cell differentiation protein Mcl-1 (Q07820 whole entry): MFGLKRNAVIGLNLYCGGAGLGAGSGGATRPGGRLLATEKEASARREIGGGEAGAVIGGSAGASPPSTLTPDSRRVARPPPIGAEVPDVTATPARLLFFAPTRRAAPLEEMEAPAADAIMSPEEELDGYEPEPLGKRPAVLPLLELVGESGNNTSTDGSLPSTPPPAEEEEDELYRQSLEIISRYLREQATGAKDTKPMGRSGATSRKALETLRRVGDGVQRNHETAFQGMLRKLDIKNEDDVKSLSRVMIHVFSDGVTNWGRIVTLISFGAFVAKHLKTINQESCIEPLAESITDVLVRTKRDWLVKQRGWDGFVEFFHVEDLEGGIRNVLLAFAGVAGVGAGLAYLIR
Chain of Large T antigen (P03070 whole entry): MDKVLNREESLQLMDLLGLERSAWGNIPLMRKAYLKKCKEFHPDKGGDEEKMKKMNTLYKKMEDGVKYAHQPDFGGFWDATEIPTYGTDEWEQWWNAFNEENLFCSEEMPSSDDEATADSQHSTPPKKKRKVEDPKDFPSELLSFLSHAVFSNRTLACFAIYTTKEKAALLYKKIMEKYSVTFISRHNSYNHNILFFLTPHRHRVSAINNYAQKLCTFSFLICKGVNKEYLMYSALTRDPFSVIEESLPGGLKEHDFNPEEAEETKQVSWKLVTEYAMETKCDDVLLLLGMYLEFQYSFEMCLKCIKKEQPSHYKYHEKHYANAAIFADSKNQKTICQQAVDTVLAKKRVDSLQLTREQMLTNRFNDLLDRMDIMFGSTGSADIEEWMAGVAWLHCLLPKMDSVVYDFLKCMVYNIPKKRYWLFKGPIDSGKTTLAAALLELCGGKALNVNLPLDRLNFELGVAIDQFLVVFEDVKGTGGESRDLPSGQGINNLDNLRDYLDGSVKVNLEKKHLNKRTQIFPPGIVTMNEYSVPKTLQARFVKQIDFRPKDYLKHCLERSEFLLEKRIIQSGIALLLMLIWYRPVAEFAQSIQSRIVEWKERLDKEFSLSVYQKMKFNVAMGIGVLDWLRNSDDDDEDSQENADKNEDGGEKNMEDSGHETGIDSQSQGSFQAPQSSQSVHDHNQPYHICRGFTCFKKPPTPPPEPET
Chain of Cytochrome P450 2D6 (P10635 whole entry): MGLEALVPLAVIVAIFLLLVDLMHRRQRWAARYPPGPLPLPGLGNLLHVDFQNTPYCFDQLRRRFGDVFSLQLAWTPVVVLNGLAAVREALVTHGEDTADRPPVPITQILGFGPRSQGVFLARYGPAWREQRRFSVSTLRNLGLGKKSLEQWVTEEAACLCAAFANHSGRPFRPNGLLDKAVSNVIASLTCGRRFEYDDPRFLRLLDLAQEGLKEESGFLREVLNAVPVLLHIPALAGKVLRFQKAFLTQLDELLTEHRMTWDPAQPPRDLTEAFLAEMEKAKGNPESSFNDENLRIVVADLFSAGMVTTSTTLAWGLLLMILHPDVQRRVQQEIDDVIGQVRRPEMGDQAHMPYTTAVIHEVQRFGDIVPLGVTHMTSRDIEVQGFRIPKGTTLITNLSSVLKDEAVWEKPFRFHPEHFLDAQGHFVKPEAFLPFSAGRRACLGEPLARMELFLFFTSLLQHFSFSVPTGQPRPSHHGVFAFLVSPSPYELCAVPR

In the case of `COC(=O)C1=CCCN(C)C1` [ARECOLINE HYDROBROMIDE], the EC50 in assay [1] was 2.26 µM (active); in assay [2], > 29.9 µM (not active); in assay [3] it was 6.68 µM (active).

As to `O=C(CSc1ccsc1[N+](=O)[O-])Nc1cccc(F)c1`, the half-inhibitory concentration (IC50) was 2.92 µM (active) in assay [4], 50 µM (inactive) in assay [5] and 3.65 µM (active) in assay [6]. Further, the AC50 in assay [7] is 16.3 µM (active).

As for `CCOC(=O)CSc1nnc(CSc2nc(C)cc(C)n2)n1Cc1ccco1`, in [5], the IC50 is > 64 µM (inactive).

For the molecule `Sc1nnc(Nc2ccccc2)s1`, the IC50 in assay [8] was 0.892 µM (active). The AC50 in assay [9] is 1.91 µM (active).

Regarding `Oc1ccc(C(=S)N2CCN(c3cccc(Cl)c3)CC2)cc1`, the IC50 in assay [8] is 81 µM (active).

In the case of `COc1ccc(-c2c/c(=N\CC(=O)O)c3ccccc3o2)cc1.[O-][Cl+3]([O-])([O-])O`, in assay [10], the EC50 is > 50 µM (active).

For `Cc1ccc(S(=O)(=O)NCC(=O)N(CC(=O)NCC2CCCO2)C2CCCC2)cc1` (stereo unspecified), the IC50 in [5] is > 64 µM (inactive).

For the molecule `Cn1nc(-c2ccc(N3CCOCC3)c(NS(=O)(=O)c3ccccc3)c2)c2ccccc2c1=O`, the IC50 in assay [11] is > 80 µM (inactive).

Consider `CCOC(=O)C(CC)Sc1ccc2nnc(-c3cccnc3)n2n1` (stereo unspecified), for which the EC50 in assay [10] is > 50 µM (active); in assay [12] it was > 195 µM (not active).

Take `O=C(Nc1cccc([N+](=O)[O-])c1)Nc1cccs1`: in assay [10], the EC50 is > 50 µM (active).

As for `COc1ccc(/C=N/n2c(S)nnc2-c2cccs2)cc1`, the figures for the EC50 in assay [13], in assay [14] and in assay [15] were 7.17 µM (active), > 150 µM (not active) and 15.6 µM (active), respectively. Moreover, the IC50 in assay [5] was > 64 µM (inactive). In [16], the AC50 was 3.55 µM (inconclusive).

Regarding `CC(C)CCn1c(=O)c2ccccc2n2c(=S)[nH]nc12`, the IC50 was 14.7 µM (active) in [17] and 1.19 µM (active) in assay [8].

`Cc1ccc(CCNC(=O)c2cc(S(=O)(=O)N3CCCCC3)c[nH]2)cc1`: the EC50 in [10] is > 50 µM (active).

As to `COc1ccc(-n2ncc3c(N4CCC(C(N)=O)CC4)ncnc32)cc1`, the IC50 in assay [11] was > 80 µM (inactive).

As to `CCOC(=O)c1sc(NC(=O)c2cc(-c3ccccc3C)nc3ccccc23)c(C#N)c1C`, the EC50 in assay [13] is 1.04 µM (active); in [14], > 150 µM (not active); in assay [15], 36.2 µM (active). Besides, the AC50 in assay [18] is 0.693 µM (active). Moreover, in assay [11], the IC50 was 62.1 µM (inactive).

Source of the values: ChEMBL document CHEMBL1201862, “PubChem BioAssay data set” (2004).
